Tests used:
[1] = system: cell pools constructed using the P5CS/eGFP vector (GSKO cells); assay: P5CS/eGFP cell pools grown without proline with P5CS inhibitor, 96 deep well plates; format: cell-based, Chinese hamster; conditions: with increase in inhibitor concentration; media lacking proline; 24-216 hours
Experimental: FIGS. 8A-8F are a series of diagrams showing cell pools generated using P5CS overexpression and cultured in the absence of proline, and in the presence of L-azetidine-2-carboxylic acid, a P5CS inhibitor. L-azetidine-2-carboxylic acid was added at a variety of different concentrations and cells were cultured in 96 deep well plates for 9 days. These cells were analyzed for cell growth, as measured by viable cell concentration (FIG. 8A) and culture viability (FIG. 8B). Cells were also analyzed for mean culture fluorescence (FIG. 8C) and percentage of cells exceeding the predetermined thresholds of 10^2 (FIG. 8D) and 10^3 (FIG. 8E).
FIGS. 9A-9F are a series of diagrams showing cell pools generated using P5CS overexpression and cultured in the absence of proline, and in the presence of 3,4-dehydro-L-proline, a P5CS inhibitor. 3,4-dehydro-L-proline was added at a variety of different concentrations and cells were cultured in 96 deep well plates for 9 days. These cells were analyzed for cell growth, as measured by viable cell concentration (FIG. 9A) and culture viability (FIG. 9B). Cells were also analyzed for mean culture fluorescence (FIG. 9C) and percentage of cells exceeding the predetermined thresholds of 10^2 (FIG. 9D) and 10^3 (FIG. 9E).
FIGS. 10A-10F are a series of diagrams showing cell pools generated using P5CS overexpression and cultured in the absence of proline, and in the presence of L-4-thiazolidinecarboxylic acid, a P5CS inhibitor. L-4-thiazolidinecarboxylic acid was added at a variety of different concentrations and cells were cultured in 96 deep well plates for 9 days. These cells were analyzed for cell growth, as measured by viable cell concentration (FIG. 10A) and culture viability (FIG. 10B). Cells were also analyzed for mean culture fluorescence (FIG. 10C) and percentage of cells exceeding the predetermined thresholds of 10^2 (FIG. 10D) and 10^3 (FIG. 10E).
In order to assess the capacity of the proline/P5CS system to generate recombinant cell pools, vectors comprising the P5CS gene and a gene of interest were transfected into cells and subsequently cultured in the absence of proline in an attempt to generate recombinant cell pools. Briefly, 1×10^7 Lonza's GSKO cells were electroporated with 20 μg plasmid which was first linearized using PvuI restriction enzyme (NEB) and purified using sodium acetate and ethanol precipitation. The construct used contained both the P5CS gene for evaluation as a selection marker and eGFP as a reporter gene. Transfections were carried out in CM76 medium in the absence of proline but supplemented with L-glutamine to achieve a final concentration of 6 mM. The cells were then cultured in 25 ml of this medium in a T75 flask for 10 days before being transferred to 10 ml suspension culture, also in proline absent medium. The resulting pool was analyzed using flow cytometry. Cell samples were first centrifuged at 1,000 rpm for 5 minutes and resuspended in 500 μl PBS. Samples were then loaded onto the probe of a FACScalibur™ (BD biosciences) and fluorescence intensity was measured in relation to the cell count. The forward scatter (FSC) was measure using the E-1 amplifier and side scatter (SSC) set to 465 whilst FL1 recorded cells at 473; all settings were converted to Log scales. In order to facilitate the adherence of suspension cells, coverslips were first submerged in poly-L-lysine and incubated for 15 minutes at room temperature. Coverslips were then removed and left to dry in a sterile environment before transferring to a 24 well plate. Cells were cultured at 37° C. overnight to facilitate adhering of cells to the coverslip before aspirating the medium and adding 250 μl of 4% paraformaldehyde in PBS and incubating for 20 minutes at 37° C. to fix cells. Subsequently two 1 ml PBS washes were carried out before 250 μl 0.1% triton X100 in PBS was added and incubated for 5 minutes at room temperature to permeablize cells. […]

[2] = system: cell pools constructed using the P5CS/eGFP vector (GSKO cells); assay: P5CS/eGFP cell pools grown without proline with P5CS inhibitor, static 24 well plates; format: cell-based, Chinese hamster; conditions: with increase in inhibitor concentration; media lacking proline; 24-216 hours
Experimental: FIGS. 11A-11E are a series of diagrams showing analysis of cell pools generated using P5CS overexpression and cultured in the absence of proline, and in the presence of L-azetidine-2-carboxylic acid, a P5CS inhibitor. L-azetidine-2-carboxylic acid was added at a variety of different concentrations and cells were cultured in static 24 well plates for 9 days. These cells were analyzed for cell growth, as measured by viable cell concentration (FIG. 11A) and culture viability (FIG. 11B). Cells were also analyzed for mean culture fluorescence (FIG. 11C) and percentage of cells exceeding the predetermined thresholds of 10^2 (FIG. 11D) and 10^3 (FIG. 11E).
FIGS. 12A-12E are a series of diagrams showing analysis of cell pools generated using P5CS overexpression and cultured in the absence of proline, and in the presence of 3,4-dehydro-L-proline, a P5CS inhibitor. 3,4-dehydro-L-proline was added at a variety of different concentrations and cells were cultured in static 24 well plates for 9 days. These cells were analyzed for cell growth, as measured by viable cell concentration (FIG. 12A) and culture viability (FIG. 12B). Cells were also analyzed for mean culture fluorescence (FIG. 12C) and percentage of cells exceeding the predetermined thresholds of 10^2 (FIG. 12D) and 10^3 (FIG. 12E). […]

Row | Compound | cell growth (viable cell number) [1] | mean fluorescence (eGFP) [1] | cell growth (viable cell number) [2] | mean fluorescence (eGFP) [2]
1 | O=C(O)[C@@H]1CSCN1 [L-4-thiazolidinecarboxylic acid] | slower cell growth | higher mean fluorescence | – | –
2 | O=C(O)[C@@H]1CCN1 [L-azetidine-2-carboxylic acid] | slower cell growth | higher mean fluorescence | slower cell growth | higher mean fluorescence
3 | O=C(O)[C@@H]1C=CCN1 [3,4-dehydro-L-proline] | slower cell growth | higher mean fluorescence | – | –

Source: patent US12077786B2, “Methods of cell selection and modifying cell metabolism” (LONZA LTD, priority 2018, dated 2024)
